Source: US6420172B1, “Method for inducing tumor immunity” (TIB Company, LLC, priority 1992, dated 2002)

Key:
transfected C6 cells = experiment: 3H-thymidine incorporation into transfected C6 cells in serum-free medium; type: cell-based, rat; settings: 48 hours, 50 μg/ml
Excerpt: The mechanism underlying the loss of tumorigenicity for the antisense IGF-1 transfectants is linked to enhanced immunogenicity. Applicant notes a striking infiltration of mononuclear cells surrounding the injected C6 transfected cells in vivo. No such infiltrates ere apparent for the parental (IGF-I positive) cells in he tumors formed in vivo. […] This possibility is substantiated by the examples provided below. This immunological component may exist together with an antiproliferative effect. C6 cellular proliferation is likely to involve factors in addition to IGF-1, however, since the rate of incorporation of ^3H-thymidine into transfected C6 cells cultured for 48 hours in serum-free medium was unaffected by the presence of ZnSO^4 or IGF-I protein (50 μg/ml) in the culture medium (data not shown).

tumor cells = settings: literature reports; cited from earlier work

Row | Compound | rate of incorporation of 3H-thymidine in the presence of IGF-I protein (transfected C6 cells) | tumor development in vivo (tumor cells)
1 | IGF-I protein: Insulin-like growth factor I protein added to the culture medium | unaffected | 
2 | C[C@@H](O)[C@@H]1NC(=O)[C@H](CCCCN)NC(=O)[C@@H](Cc2c[nH]c3ccccc23)NC(=O)[C@H](Cc2ccccc2)NC(=O)[C@@H](NC(=O)[C@H](N)Cc2ccccc2)CSSC[C@@H](C(=O)N[C@H](CO)[C@@H](C)O)NC1=O [octreotide] |  | not blocked
